Active and inactive are the calls of the source. The rule behind the calls is not given here.
System: CCRIS mutagenicity, Ames/micronucleus/aberration tests
Test: CCRIS mutagenicity studies
[1] = Test System: AMES SALMONELLA TYPHIMURIUM, Strain/Indicator: TA98, Metabolic Activation: NONE, Method: PREINCUBATION
[2] = Test System: AMES SALMONELLA TYPHIMURIUM, Strain/Indicator: TA100, Metabolic Activation: NONE, Method: PREINCUBATION
[3] = Test System: AMES SALMONELLA TYPHIMURIUM, Strain/Indicator: TA98, Metabolic Activation: NONE, Method: STANDARD PLATE
[4] = Test System: AMES SALMONELLA TYPHIMURIUM, Strain/Indicator: TA98, Metabolic Activation: RAT, LIVER, S-9, AROCLOR 1254, Method: STANDARD PLATE
[5] = Test System: AMES SALMONELLA TYPHIMURIUM, Strain/Indicator: TA100, Metabolic Activation: NONE, Method: STANDARD PLATE
[6] = Test System: AMES SALMONELLA TYPHIMURIUM, Strain/Indicator: TA100, Metabolic Activation: RAT, LIVER, S-9, AROCLOR 1254, Method: STANDARD PLATE
[7] = Test System: AMES SALMONELLA TYPHIMURIUM, Strain/Indicator: TA1535, Metabolic Activation: NONE, Method: STANDARD PLATE
[8] = Test System: AMES SALMONELLA TYPHIMURIUM, Strain/Indicator: TA1537, Metabolic Activation: NONE, Method: STANDARD PLATE
[9] = Test System: E. COLI, Strain/Indicator: WP2 UVRA, Metabolic Activation: NONE, Method: STANDARD PLATE

Measured: mutagenic call

CC(C)c1ccc2oc3nc(N)c(C(=O)O)cc3c(=O)c2c1
inactive: [1] inactive; negative | Test System: AMES SALMONELLA TYPHIMURIUM, Strain/Indicator: TA98, Metabolic Activation: RAT, LIVER, S-9, AROCLOR 1254, Method: PREINCUBATION inactive; negative | [2] inactive; negative | Test System: AMES SALMONELLA TYPHIMURIUM, Strain/Indicator: TA100, Metabolic Activation: RAT, LIVER, S-9, AROCLOR 1254, Method: PREINCUBATION inactive; negative | Test System: AMES SALMONELLA TYPHIMURIUM, Strain/Indicator: TA1537, Metabolic Activation: NONE, Method: PREINCUBATION inactive; negative | Test System: AMES SALMONELLA TYPHIMURIUM, Strain/Indicator: TA1537, Metabolic Activation: RAT, LIVER, S-9, AROCLOR 1254, Method: PREINCUBATION inactive; negative | Test System: E. COLI, Strain/Indicator: WP2 (HCR), Metabolic Activation: NONE, Method: PREINCUBATION inactive; negative | Test System: E. COLI, Strain/Indicator: WP2 (HCR), Metabolic Activation: RAT, LIVER, S-9, AROCLOR 1254, Method: PREINCUBATION inactive; negative

O=C1c2ccccc2-c2ccccc21
inactive: Test System: AMES SALMONELLA TYPHIMURIUM, Strain/Indicator: TA98, Metabolic Activation: HAMSTER, LIVER, S-9, AROCLOR 1254, Method: STANDARD PLATE inactive; negative | [3] inactive; negative | [4] inactive; negative | Test System: AMES SALMONELLA TYPHIMURIUM, Strain/Indicator: TA100, Metabolic Activation: HAMSTER, LIVER, S-9, AROCLOR 1254, Method: STANDARD PLATE inactive; negative | [5] inactive; negative | [6] inactive; negative | Test System: AMES SALMONELLA TYPHIMURIUM, Strain/Indicator: TA1535, Metabolic Activation: HAMSTER, LIVER, S-9, AROCLOR 1254, Method: STANDARD PLATE inactive; negative | [7] inactive; negative | Test System: AMES SALMONELLA TYPHIMURIUM, Strain/Indicator: TA1535, Metabolic Activation: RAT, LIVER, S-9, AROCLOR 1254, Method: STANDARD PLATE inactive; negative | Test System: AMES SALMONELLA TYPHIMURIUM, Strain/Indicator: TA1537, Metabolic Activation: HAMSTER, LIVER, S-9, AROCLOR 1254, Method: STANDARD PLATE inactive; negative | [8] inactive; negative | Test System: AMES SALMONELLA TYPHIMURIUM, Strain/Indicator: TA1537, Metabolic Activation: RAT, LIVER, S-9, AROCLOR 1254, Method: STANDARD PLATE inactive; negative | Test System: MOUSE LYMPHOMA, Strain/Indicator: L5178Y (TK+/TK-), Metabolic Activation: NONE, Method: SUSPENSION/PLATE inactive; negative. reevaluation of results: inconclusive | Test System: MOUSE LYMPHOMA, Strain/Indicator: L5178Y (TK+/TK-), Metabolic Activation: RAT, LIVER, S-9, AROCLOR 1254, Method: SUSPENSION/PLATE inactive; negative. reevaluation of results: negative

CN1C(=O)CC(=O)N(c2ccccc2)c2cc(Cl)ccc21
inactive: [3] inactive; negative | Test System: AMES SALMONELLA TYPHIMURIUM, Strain/Indicator: TA98, Metabolic Activation: RAT, LIVER, S-9, PHENOBARBITAL AND 5,6-BENZOFLAVONE, Method: STANDARD PLATE inactive; negative | [5] inactive; negative | Test System: AMES SALMONELLA TYPHIMURIUM, Strain/Indicator: TA100, Metabolic Activation: RAT, LIVER, S-9, PHENOBARBITAL AND 5,6-BENZOFLAVONE, Method: STANDARD PLATE inactive; negative | [7] inactive; negative | Test System: AMES SALMONELLA TYPHIMURIUM, Strain/Indicator: TA1535, Metabolic Activation: RAT, LIVER, S-9, PHENOBARBITAL AND 5,6-BENZOFLAVONE, Method: STANDARD PLATE inactive; negative | [8] inactive; negative | Test System: AMES SALMONELLA TYPHIMURIUM, Strain/Indicator: TA1537, Metabolic Activation: RAT, LIVER, S-9, PHENOBARBITAL AND 5,6-BENZOFLAVONE, Method: STANDARD PLATE inactive; negative | [9] inactive; negative

CC(Oc1ccc(Cl)cc1Cl)C(=O)O (stereo not drawn)
inactive: Test System: AMES SALMONELLA TYPHIMURIUM, Strain/Indicator: TA97, Metabolic Activation: NONE, Method: STANDARD PLATE inactive; negative | Test System: AMES SALMONELLA TYPHIMURIUM, Strain/Indicator: TA97, Metabolic Activation: RAT, LIVER, S-9, AROCLOR 1254, Method: STANDARD PLATE inactive; negative | [3] inactive; negative | [4] inactive; negative | [5] inactive; negative | [6] inactive; negative | Test System: AMES SALMONELLA TYPHIMURIUM, Strain/Indicator: TA102, Metabolic Activation: NONE, Method: STANDARD PLATE inactive; negative | Test System: AMES SALMONELLA TYPHIMURIUM, Strain/Indicator: TA102, Metabolic Activation: RAT, LIVER, S-9, AROCLOR 1254, Method: STANDARD PLATE inactive; negative

C=C(CC(=O)OCC)C(=O)O
inactive: Test System: Chinese Hamster ovary (CHO) cells, Metabolic Activation: None, Method: HGPRT/6-Thioguanine inactive; negative

CCCCN(N=O)C(N)=O
active: [2] active; positive | Test System: AMES SALMONELLA TYPHIMURIUM, Strain/Indicator: TA100, Metabolic Activation: RAT, LIVER, S-9, KC500 OR PHENOBARBITAL, Method: LIQUID SUSPENSION active; positive | Test System: AMES SALMONELLA TYPHIMURIUM, Strain/Indicator: TA1535, Metabolic Activation: NONE, Method: PREINCUBATION active; positive | [7] active; positive | Test System: CHINESE HAMSTER V-79, Strain/Indicator: V-79/6-THIOGUANINE, Metabolic Activation: NONE, Method: FLASK ASSAY active; positive | Test System: CHO/HGPRT, Strain/Indicator: CHO-K1-BH4, Metabolic Activation: NONE, Method: STANDARD PLATE active; positive | Test System: E. COLI B, Strain/Indicator: H/R30R, Metabolic Activation: NONE active; positive | Test System: E. COLI B, Strain/Indicator: HS30R, Metabolic Activation: NONE active; positive | Test System: E. COLI, Strain/Indicator: WP2, Metabolic Activation: NONE, Method: STANDARD PLATE active; positive | Test System: E. COLI, Strain/Indicator: WP2 UVRA, Metabolic Activation: NONE, Method: PREINCUBATION active; positive | [9] active; positive | Test System: E. COLI, Strain/Indicator: WP2 UVRA, Metabolic Activation: RAT, LIVER, S-9, PHENOBARBITAL AND 5,6-BENZOFLAVONE, Method: PREINCUBATION active; positive

c1ccc2c(c1)ccc1c2ccc2c3ccccc3ccc21
active: Test System: AMES SALMONELLA TYPHIMURIUM, Strain/Indicator: TA100, Metabolic Activation: MOUSE, LIVER, S-10, AROCLOR 1254 active; positive

O=C(N=c1sn(C(=O)c2ccc([N+](=O)[O-])cc2)c2ccccc12)c1ccc([N+](=O)[O-])cc1
active: Test System: AMES SALMONELLA TYPHIMURIUM, Strain/Indicator: TA100, Metabolic Activation: S-9, Method: STANDARD PLATE active; positive

O=C=Nc1ccc(Cc2ccccc2N=C=O)cc1
inactive: Test System: AMES SALMONELLA TYPHIMURIUM, Strain/Indicator: TA100, Metabolic Activation: RAT, LIVER, S-9, AROCLOR 1254 (30%), Method: STANDARD PLATE inactive; negative

O[C@H]1[C@H]2O[C@H]2c2c(ccc3cc4ccc5ccccc5c4nc23)[C@@H]1O
active: [1] active; positive | [2] active; positive | Test System: CHINESE HAMSTER V-79, Strain/Indicator: V-79/8-AZAGUANINE, Metabolic Activation: NONE, Method: STANDARD PLATE active; positive

COP(=S)(OC)Oc1ccc(N=O)c(C)c1
active: [3] active; positive | [4] active; positive | [5] active; positive | [6] active; positive

C[As](C)O
active: End Point: IN VITRO CHROMOSOMAL ABERRATIONS, Test System: CHINESE HAMSTER V79 CELLS, Metabolic Activation: NONE active; positive (structural and ploidy changes)

Source: PubChem BioAssay AID1259407 (Chemical Carcinogenesis Research Information System (CCRIS), 2018)
